According to PMC8213057, “Targeting ALK2: An Open Science Approach to Developing Therapeutics for the Treatment of Diffuse Intrinsic Pontine Glioma” (Journal of Medicinal Chemistry, 2020):

How the values were obtained:
NLK = target: T1, NLK (Homo sapiens, UniProt Q9UBE8); assay: 375-member kinase panel; format: biochemical; conditions: Run 1, Run 2; for % enzyme activity: 1 μM; for remaining activity at 1 µM: read-out: % enzyme activity, 1 μM
T1 construct: purchased Reaction Biology Corporation
T1 sequence (Q9UBE8 1-527): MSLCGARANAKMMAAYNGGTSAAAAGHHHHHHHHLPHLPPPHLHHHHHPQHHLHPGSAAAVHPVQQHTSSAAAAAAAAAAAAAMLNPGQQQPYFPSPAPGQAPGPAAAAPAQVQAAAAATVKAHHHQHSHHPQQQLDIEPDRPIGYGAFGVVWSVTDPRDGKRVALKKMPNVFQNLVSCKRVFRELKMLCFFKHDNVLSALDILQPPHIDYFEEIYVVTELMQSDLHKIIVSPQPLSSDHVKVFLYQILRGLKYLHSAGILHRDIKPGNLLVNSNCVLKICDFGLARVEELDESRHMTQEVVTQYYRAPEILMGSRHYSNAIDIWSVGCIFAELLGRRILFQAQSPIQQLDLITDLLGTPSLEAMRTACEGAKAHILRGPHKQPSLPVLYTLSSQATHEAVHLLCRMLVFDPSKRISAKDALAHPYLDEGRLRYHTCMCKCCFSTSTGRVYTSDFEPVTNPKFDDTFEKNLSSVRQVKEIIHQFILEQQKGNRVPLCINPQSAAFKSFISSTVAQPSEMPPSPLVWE

MRCKa/CDC42BPA = MRCKa/CDC42BPA (Homo sapiens, UniProt Q5VT25); assay: biochemical; conditions: read-out: % enzyme activity, 1 μM; Run 1, Run 2
TTBK1 = TTBK1 (Homo sapiens, UniProt Q5TCY1); assay: biochemical; conditions: read-out: % enzyme activity, 1 μM; Run 1, Run 2
c-Kit = c-Kit (Homo sapiens, UniProt P10721); assay: biochemical; conditions: read-out: % enzyme activity, 1 μM; Run 1, Run 2
MSK2/RPS6KA4 = MSK2/RPS6KA4 (Homo sapiens, UniProt O75676); conditions: 1 μM; Run 1, Run 2
MYLK3 = target: T2, MYLK3 (Homo sapiens, UniProt Q32MK0); assay: biochemical; conditions: read-out: % enzyme activity, 1 μM; Run 1, Run 2
T2 sequence (Q32MK0 1-819): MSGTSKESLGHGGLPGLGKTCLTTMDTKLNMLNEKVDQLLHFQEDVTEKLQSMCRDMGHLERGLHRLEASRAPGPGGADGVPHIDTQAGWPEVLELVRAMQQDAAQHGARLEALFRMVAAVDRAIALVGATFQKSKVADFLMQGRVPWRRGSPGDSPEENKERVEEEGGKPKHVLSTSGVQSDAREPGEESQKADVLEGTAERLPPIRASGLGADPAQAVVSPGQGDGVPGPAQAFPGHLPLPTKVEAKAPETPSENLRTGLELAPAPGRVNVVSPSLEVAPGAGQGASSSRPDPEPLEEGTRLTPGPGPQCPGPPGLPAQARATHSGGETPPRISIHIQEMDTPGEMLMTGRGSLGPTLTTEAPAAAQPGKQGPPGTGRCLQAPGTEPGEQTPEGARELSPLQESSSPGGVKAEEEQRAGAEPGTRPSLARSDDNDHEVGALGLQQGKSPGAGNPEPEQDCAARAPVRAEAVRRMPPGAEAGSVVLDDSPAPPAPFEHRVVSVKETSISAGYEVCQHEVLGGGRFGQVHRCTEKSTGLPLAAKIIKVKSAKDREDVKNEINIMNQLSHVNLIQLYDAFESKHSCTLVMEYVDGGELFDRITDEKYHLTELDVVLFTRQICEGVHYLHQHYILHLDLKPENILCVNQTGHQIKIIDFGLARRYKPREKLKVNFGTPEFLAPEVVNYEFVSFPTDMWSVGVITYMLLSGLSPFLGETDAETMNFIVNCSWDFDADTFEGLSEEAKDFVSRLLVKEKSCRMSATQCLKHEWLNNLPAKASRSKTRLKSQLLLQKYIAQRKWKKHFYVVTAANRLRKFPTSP

SGK1 = target: T3, SGK1 (Homo sapiens, UniProt O00141); assay: biochemical; conditions: read-out: % enzyme activity, 1 μM; Run 1, Run 2
T3 sequence (O00141 1-431): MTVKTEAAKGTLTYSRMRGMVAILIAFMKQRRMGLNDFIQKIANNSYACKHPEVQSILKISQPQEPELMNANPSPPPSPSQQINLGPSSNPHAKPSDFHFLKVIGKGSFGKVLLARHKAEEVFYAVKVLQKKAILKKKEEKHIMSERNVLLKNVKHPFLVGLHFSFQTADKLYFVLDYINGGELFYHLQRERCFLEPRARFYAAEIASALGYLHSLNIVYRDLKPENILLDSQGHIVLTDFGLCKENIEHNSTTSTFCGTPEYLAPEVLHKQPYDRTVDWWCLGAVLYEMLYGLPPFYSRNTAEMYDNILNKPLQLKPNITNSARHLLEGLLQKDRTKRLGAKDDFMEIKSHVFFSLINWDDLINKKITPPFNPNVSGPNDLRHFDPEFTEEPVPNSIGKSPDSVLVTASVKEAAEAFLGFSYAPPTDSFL

TTBK1, sequence (Q5TCY1 whole entry): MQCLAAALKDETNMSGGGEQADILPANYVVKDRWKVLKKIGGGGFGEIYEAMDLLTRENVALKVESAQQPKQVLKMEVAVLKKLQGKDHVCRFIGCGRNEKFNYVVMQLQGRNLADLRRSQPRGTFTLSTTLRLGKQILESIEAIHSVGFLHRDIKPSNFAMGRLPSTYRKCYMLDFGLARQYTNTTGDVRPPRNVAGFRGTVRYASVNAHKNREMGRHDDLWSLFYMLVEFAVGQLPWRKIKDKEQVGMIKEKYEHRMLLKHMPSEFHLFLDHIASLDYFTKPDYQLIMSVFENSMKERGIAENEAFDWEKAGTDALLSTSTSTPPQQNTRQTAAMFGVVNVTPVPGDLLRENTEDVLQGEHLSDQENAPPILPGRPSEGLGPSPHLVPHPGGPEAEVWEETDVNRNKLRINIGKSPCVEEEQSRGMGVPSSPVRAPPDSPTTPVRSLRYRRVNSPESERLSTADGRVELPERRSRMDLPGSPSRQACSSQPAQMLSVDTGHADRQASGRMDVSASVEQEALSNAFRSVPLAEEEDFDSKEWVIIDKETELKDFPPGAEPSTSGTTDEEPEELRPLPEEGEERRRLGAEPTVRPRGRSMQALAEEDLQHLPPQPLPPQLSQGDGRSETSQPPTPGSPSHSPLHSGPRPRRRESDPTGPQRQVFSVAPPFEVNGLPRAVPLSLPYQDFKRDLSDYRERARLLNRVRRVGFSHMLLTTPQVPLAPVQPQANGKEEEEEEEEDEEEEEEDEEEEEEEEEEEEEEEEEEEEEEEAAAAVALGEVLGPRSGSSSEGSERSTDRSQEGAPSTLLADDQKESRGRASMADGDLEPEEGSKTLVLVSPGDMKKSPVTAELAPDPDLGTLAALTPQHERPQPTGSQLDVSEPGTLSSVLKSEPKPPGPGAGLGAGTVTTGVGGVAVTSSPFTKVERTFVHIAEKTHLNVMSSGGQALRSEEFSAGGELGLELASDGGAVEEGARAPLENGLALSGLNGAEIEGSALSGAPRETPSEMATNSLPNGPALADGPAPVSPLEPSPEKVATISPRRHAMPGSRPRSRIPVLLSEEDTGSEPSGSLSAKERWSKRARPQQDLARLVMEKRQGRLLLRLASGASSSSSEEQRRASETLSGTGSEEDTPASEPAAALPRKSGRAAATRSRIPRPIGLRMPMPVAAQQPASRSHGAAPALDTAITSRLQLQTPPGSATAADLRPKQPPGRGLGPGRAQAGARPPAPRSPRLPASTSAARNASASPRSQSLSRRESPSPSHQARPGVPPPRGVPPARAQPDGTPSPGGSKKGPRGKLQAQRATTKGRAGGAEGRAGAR
MSK2/RPS6KA4, sequence (O75676 whole entry): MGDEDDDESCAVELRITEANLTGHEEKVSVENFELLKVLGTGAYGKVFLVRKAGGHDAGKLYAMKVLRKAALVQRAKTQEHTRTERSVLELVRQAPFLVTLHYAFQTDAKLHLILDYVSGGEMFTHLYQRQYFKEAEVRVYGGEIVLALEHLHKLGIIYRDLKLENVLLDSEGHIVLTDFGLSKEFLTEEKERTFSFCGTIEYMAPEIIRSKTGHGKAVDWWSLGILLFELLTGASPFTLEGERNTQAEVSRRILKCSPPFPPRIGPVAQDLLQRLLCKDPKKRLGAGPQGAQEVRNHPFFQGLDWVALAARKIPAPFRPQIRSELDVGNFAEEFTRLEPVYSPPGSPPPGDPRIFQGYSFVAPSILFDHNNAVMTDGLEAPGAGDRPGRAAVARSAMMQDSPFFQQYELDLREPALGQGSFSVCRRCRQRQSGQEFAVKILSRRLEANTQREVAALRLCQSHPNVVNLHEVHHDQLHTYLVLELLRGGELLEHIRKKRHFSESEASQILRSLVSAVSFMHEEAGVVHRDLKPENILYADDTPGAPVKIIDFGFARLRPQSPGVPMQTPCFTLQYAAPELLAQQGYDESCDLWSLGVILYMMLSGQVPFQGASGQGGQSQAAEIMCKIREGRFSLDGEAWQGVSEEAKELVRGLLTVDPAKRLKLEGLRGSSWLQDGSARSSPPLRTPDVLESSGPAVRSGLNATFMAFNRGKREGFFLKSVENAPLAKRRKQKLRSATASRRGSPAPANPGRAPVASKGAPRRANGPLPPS
MRCKa/CDC42BPA, sequence (Q5VT25 whole entry): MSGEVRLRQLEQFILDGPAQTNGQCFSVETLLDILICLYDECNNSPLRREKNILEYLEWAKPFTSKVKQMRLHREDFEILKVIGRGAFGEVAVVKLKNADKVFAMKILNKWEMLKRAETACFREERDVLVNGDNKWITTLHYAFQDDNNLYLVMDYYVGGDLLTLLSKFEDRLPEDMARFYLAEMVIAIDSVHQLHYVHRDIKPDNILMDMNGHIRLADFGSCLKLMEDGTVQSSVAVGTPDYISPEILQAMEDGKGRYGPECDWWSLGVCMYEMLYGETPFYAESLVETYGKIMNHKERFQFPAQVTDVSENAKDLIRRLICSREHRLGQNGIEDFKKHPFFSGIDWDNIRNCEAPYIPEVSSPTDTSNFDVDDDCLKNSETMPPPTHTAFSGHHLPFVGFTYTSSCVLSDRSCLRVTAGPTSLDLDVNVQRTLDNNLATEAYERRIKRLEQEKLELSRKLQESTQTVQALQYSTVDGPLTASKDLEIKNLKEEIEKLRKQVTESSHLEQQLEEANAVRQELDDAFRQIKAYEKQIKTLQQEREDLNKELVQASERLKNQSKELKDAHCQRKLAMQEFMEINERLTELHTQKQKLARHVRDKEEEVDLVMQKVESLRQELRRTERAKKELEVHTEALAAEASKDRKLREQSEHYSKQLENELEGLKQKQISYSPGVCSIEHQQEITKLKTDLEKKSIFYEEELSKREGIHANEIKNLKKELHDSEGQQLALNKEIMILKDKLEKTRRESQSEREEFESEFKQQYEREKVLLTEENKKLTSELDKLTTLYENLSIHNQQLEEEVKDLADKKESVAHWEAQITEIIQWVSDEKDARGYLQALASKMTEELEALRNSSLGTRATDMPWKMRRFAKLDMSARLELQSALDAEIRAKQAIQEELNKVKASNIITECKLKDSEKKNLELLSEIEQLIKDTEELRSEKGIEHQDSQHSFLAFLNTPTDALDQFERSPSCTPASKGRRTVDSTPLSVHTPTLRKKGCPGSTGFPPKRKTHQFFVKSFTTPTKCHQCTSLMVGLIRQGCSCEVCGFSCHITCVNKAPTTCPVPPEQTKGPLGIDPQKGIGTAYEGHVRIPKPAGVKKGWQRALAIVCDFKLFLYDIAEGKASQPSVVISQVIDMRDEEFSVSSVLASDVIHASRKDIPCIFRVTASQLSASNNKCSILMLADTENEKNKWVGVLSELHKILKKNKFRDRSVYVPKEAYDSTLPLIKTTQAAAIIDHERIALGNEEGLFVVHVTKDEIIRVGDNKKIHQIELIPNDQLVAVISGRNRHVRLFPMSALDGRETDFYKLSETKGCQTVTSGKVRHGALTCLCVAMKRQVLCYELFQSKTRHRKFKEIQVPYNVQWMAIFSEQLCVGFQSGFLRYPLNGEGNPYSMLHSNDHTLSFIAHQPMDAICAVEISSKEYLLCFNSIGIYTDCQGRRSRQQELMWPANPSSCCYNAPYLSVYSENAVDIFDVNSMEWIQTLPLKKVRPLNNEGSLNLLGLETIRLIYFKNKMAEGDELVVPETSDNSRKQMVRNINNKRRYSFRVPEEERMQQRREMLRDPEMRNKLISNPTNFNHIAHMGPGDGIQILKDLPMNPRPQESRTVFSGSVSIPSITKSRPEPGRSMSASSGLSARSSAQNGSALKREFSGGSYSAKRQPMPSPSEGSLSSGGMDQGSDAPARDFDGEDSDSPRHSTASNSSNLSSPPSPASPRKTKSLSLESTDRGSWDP
c-Kit, sequence (P10721 26-976): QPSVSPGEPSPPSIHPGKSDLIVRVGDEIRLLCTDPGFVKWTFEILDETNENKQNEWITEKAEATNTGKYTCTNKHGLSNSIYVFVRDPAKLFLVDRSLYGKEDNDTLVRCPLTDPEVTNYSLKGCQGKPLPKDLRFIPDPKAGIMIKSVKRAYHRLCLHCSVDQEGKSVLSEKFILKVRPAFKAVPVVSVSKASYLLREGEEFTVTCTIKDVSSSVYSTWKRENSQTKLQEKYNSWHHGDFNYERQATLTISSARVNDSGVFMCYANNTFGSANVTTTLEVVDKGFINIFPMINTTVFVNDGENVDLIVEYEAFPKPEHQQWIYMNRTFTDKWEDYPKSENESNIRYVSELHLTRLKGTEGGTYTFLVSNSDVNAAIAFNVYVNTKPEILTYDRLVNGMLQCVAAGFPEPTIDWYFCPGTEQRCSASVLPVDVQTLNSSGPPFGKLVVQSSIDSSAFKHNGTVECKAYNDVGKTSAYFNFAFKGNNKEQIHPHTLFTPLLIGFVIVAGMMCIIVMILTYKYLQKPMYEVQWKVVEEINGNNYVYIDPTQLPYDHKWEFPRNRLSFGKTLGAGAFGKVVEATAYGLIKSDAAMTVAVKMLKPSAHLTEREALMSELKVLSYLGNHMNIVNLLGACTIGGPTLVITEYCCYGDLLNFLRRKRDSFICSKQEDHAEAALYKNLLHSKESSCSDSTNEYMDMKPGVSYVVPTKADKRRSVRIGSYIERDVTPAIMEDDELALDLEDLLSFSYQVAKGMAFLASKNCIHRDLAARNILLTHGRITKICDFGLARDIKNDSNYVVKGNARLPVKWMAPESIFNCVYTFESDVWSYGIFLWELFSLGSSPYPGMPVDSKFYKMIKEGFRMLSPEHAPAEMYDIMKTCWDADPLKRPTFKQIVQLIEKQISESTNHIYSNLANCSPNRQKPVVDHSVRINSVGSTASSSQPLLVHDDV

SMILES | % enzyme activity (NLK) | remaining activity at 1 µM (NLK) | remaining activity at 1 µM (MRCKa/CDC42BPA) | remaining activity at 1 µM (TTBK1) | remaining activity at 1 µM (c-Kit) | % enzyme activity (MSK2/RPS6KA4) | remaining activity at 1 µM (MYLK3) | remaining activity at 1 µM (SGK1)
COc1cc(-c2cncc(-c3ccc(N4CCN(C)CC4)cc3)c2C)cc(F)c1C(N)=O [Compound 26a, 2-Fluoro-6-methoxy-4-(4-methyl-5-(4-(4-methylpiperazin-1-yl)phenyl)pyridin-3-yl)benzamide] | 20.81% | 22% | 103% | 97.3% | 74.1% | 96.56% | 99.8% | 94.9%
COc1cc(-c2cncc(-c3ccc(N4C[C@@H](C)N(C)[C@@H](C)C4)cc3)c2C)cc(F)c1C(N)=O [Compound 26c, 2-Fluoro-6-methoxy-4-(4-methyl-5-(4-((3R,5S)-3,4,5-trimethylpiperazin-1-yl)phenyl)pyridin-3-yl)benzamide] | 47.74% | 50.4% | 105% | 99.4% | 75.8% | 92.01% | 100% | 98.8%
